Consider 26 compounds from patent publication US9930890B2 (priority 2010, dated 2018).

In general, chromatographic logP refers to a lipophilicity value derived from retention on a column. Read a high chromatographic logP as higher lipophilicity.

One data set concerns Peronospora brassicae. Description: Peronospora test (oilseed rape seeds)/seed treatment. As to conditions: seed treatment, dose 50 g/dt, infected leaf area per plant after 7 days incubation, 0% = control, 100% = no disease. The class given is in vivo. As for the experimental part:
Peronospora Test (Oilseed Rape Seeds)/Seed Treatment
The test was conducted under greenhouse conditions.
Oilseed rape seeds treated with an inventive active compound or a combination of inventive active compounds dissolved in N-methyl-2-pyrrolidone and diluted with water to the desired dose were sown in 6*6 cm vessels. The vessels contain 4 cm of a 1:1 mixture of steam-treated field soil and sand. The plants grew at 10° C.
14-day-old plants were inoculated with an aqueous spore suspension of Peronospora brassicae. The vessels containing the plants were incubated in a greenhouse at a temperature of 15° C. and a relative air humidity of 100% for 7 days.
The assessment of the test included the evaluation of the infected leaf area per plant. 0% means an efficiency corresponding to that of the control, while an efficiency of 100% means that no disease is observed.

The test system of a further data set is Plasmopara viticola. Nature of the data set: Plasmopara test (grapevine)/protective. The class given is in vivo. To be noted: grapevine young plants, protective spray, active ingredient concentration 10 ppm, evaluation 6 days after inoculation; 0% = control, 100% = no infection. The procedure:
Plasmopara Test (Grapevine)/Protective
To produce an appropriate active ingredient formulation, 1 part by weight of active ingredient is mixed with the specified amounts of solvent and emulsifier, and the concentrate is diluted with water to the desired concentration.
To test for protective efficacy, young plants are sprayed with the active ingredient formulation at the stated application rate. After the spray coating has dried on, the plants are inoculated with an aqueous spore suspension of Plasmopara viticola and then remain in an incubation cabin at approx. 20° C. and 100% relative air humidity for 1 day. Subsequently, the plants are placed in a greenhouse at approx. 21° C. and approx. 90% air humidity for 4 days. The plants are then moistened and placed in an incubation cabin for 1 day.
Evaluation follows 6 days after the inoculation. 0% means an efficacy which corresponds to that of the control, whereas an efficacy of 100% means that no infection is observed.
In this test, the following inventive compounds show, at an active ingredient concentration of 10 ppm, an efficacy of 70% or more: […]

Another data set concerns Phytophthora infestans. The class given is in vivo. To be noted: tomato plants, protective spray, active ingredient concentration 100 ppm, evaluation 7 days after inoculation; 0% = control, 100% = no infection.
The conditions of data set [1]: for logp [a]: pH 2.7; for logp [b]: pH 7.8.

As to `O=C(Cn1nc(C(F)F)cc1C(F)F)N1CCC(c2nc(C3=NOC(c4ccccc4C=NO)C3)cs2)CC1` (mixture of isomers) [I-4], the Eff. % with Peronospora brassicae was 92%; with Plasmopara viticola it was 100%; with Phytophthora infestans, 100%.
As for `Cc1cc(C(F)(F)F)nn1CC(=O)N1CCC(c2nc(C3=NOC(c4ccccc4C=NO)C3)cs2)CC1` (mixture of isomers) [I-38], the Eff. % in the data set with Peronospora brassicae amounted to 86%; in the data set with Plasmopara viticola, 95%; with Phytophthora infestans, 100%.
Regarding `CON=Cc1cccc(F)c1C1CC(c2csc(C3CCN(C(=O)Cn4nc(C(F)F)cc4C(F)F)CC3)n2)=NO1` (mixture of isomers) [I-60], the Eff. % was determined as 95% with Peronospora brassicae, 100% in the data set with Plasmopara viticola and 84% with Phytophthora infestans. Moreover, the “logp [a]” value in data set [1] is 3.49[a],. In addition, the “logp [b]” value in data set [1] is 3.38[b].
With `Cc1cc(C(F)(F)F)nn1CC(=O)N1CCC(c2nc(C3=NOC(c4ccccc4OS(=O)(=O)C4CC4)C3)cs2)CC1` (racemic) [I-61], the Eff. % in the data set with Peronospora brassicae is 90%; in the data set with Plasmopara viticola, 100%; in the data set on Phytophthora infestans, 89%. Also, in data set [1], the “logp [a]” value was 3.29[a],. For the same compound, the “logp [b]” value in data set [1] is 3.31[b].
For `Cc1cc(C(F)(F)F)nn1CC(=O)N1CCC(c2nc(C3=NOC(c4ccccc4OS(C)(=O)=O)C3)cs2)CC1` (racemic) [I-62] the same measures were 90%, 100%, 89%, 3.07[a], and 2.98[b].
For `C[Si](C)(C)C#CCOc1ccccc1C1CC(c2csc(C3CCN(C(=O)Cn4nc(C(F)F)cc4C(F)F)CC3)n2)=NO1` (stereo not shown) [I-1, 2-[3,5-Bis(difluoromethyl)-1H-pyrazol-1-yl]-1-(4-{4-[5-(2-{[3-(trimethylsilyl)prop-2-yn-1-yl]oxy}phenyl)-4,5-dihydro-1,2-oxazol-3-yl]-1,3-thiazol-2-yl}piperidin-1-yl)ethanone], the figures for the chromatographic logP in “physchem” (pH 2.7) and in the data set “physchem” (pH 7.8) were 4.71 and 4.58, respectively.
In the case of `CC(C)(C)OC(=O)Nc1ccc(C2CC(c3csc(C4CCN(C(=O)Cn5nc(C(F)F)cc5C(F)F)CC4)n3)=NO2)cc1` (stereo not shown) [I-17, tert-Butyl (4-{3-[2-(1-([3,5-bis(difluoromethyl)-1H-pyrazol-1-yl]acetyl}piperidin-4-yl)-1,3-thiazol-4-yl]-4,5-dihydro-1,2-oxazol-5-yl)phenyl)carbamate], the chromatographic logP in “physchem” (pH 2.7) was determined as 3.45; in the data set “physchem” (pH 7.8), 3.46.
Take `CON=Cc1ccccc1C1CC(c2csc(C3CCN(C(=O)Cn4nc(C(F)F)cc4C(F)F)CC3)n2)=NO1` (stereo not shown) [I-26, 2-{3-[2-(1-{[3,5-Bis(difluoromethyl)-1H-pyrazol-1-yl]acetyl}piperidin-4-yl)-1,3-thiazol-4-yl]-4,5-dihydro-1,2-oxazol-5-yl}benzaldehyde O-methyloxime]: the Eff. % in the data set on Plasmopara viticola came out at 100%. The compound further had a chromatographic logP in “physchem” (pH 2.7) of 3.59.
As to `CCS(=O)(=O)Oc1ccccc1C1CC(c2csc(C3CCN(C(=O)Cn4nc(C(F)F)cc4C(F)F)CC3)n2)=NO1` (stereo not shown) [I-65], the Eff. % in the data set on Peronospora brassicae is 90%; with Plasmopara viticola, 100%; with Phytophthora infestans, 100%. The “logp [a]” value in data set [1] is 3.1[a],. Moreover, the “logp [b]” value in data set [1] is 3.09[b].
Take `C#CCN(C=O)c1ccccc1C1CC(c2csc(C3CCN(C(=O)Cn4nc(C(F)F)cc4C(F)F)CC3)n2)=NO1` (stereo not shown) [I-117]: in data set [1], the “logp [a]” value is 2.65[a], and the “logp [b]” value was 2.67[b]. In addition, the Eff. % in the data set with Plasmopara viticola is given as 96%. For the same compound, the Eff. % with Phytophthora infestans is 79%.
Consider `CCS(=O)(=O)Oc1ccccc1C1CC(c2csc(C3CCN(C(=O)Cn4nc(C(F)(F)F)cc4C)CC3)n2)=NO1` (stereo not shown) [I-119], for which, in data set [1], the “logp [a]” value is 3.19[a],. Further, in data set [1], the “logp [b]” value is 3.21[b]. Also, the Eff. % in the data set with Plasmopara viticola was determined as 100%; in the data set with Phytophthora infestans, 89%.
For `CSCOc1ccccc1C1CC(c2csc(C3CCN(C(=O)Cn4nc(C(F)(F)F)cc4C)CC3)n2)=NO1` (stereo not shown) [I-120] the same measures were 3.59[a],, 3.59[b], 95% and 89%.
With `N#CCN(C=O)c1ccccc1C1CC(c2csc(C3CCN(C(=O)Cn4nc(C(F)F)cc4C(F)F)CC3)n2)=NO1` (stereo not shown) [I-121], in data set [1], the “logp [a]” value is 2.62[a], and the “logp [b]” value was 2.55[b]. Besides, the Eff. % with Plasmopara viticola worked out at 98%. The Eff. % with Phytophthora infestans is reported as 100%.
For `O=CNc1ccccc1C1CC(c2csc(C3CCN(C(=O)Nc4cc(C(F)F)ccc4C(F)F)CC3)n2)=NO1` (stereo not shown) [I-122] the same measures were 2.63[a],, 2.54[b], 89% and 97%.
For `O=CNc1ccccc1C1CC(c2csc(C3CCN(C(=O)Cc4cc(C(F)F)ccc4C(F)F)CC3)n2)=NO1` (stereo not shown) [I-123], in that order: 2.74[a],, 2.64[b], 73% and 100%.
As to `CS(=O)(=O)Oc1ccccc1C1CC(c2csc(C3CCN(C(=O)Cn4nc(C(F)F)cc4C(F)F)CC3)n2)=NO1` (stereo not shown) [I-124], the Eff. % in the data set with Peronospora brassicae, in the data set on Plasmopara viticola and in the data set with Phytophthora infestans was 100% throughout. Also, the “logp [a]” value in data set [1] is 2.86[a],. The “logp [b]” value in data set [1] is 2.86[b].
For `Cc1cc(C(F)(F)F)nn1CC(=O)N1CCC(c2nc(C3=NOC(c4ccccc4OS(=O)(=O)C(F)(F)F)C3)cs2)CC1` (stereo not shown) [I-125], in data set [1], the “logp [a]” value was 3.99[a], and the “logp [b]” value is 4[b]. In addition, the Eff. % with Plasmopara viticola worked out at 100%. In the data set with Phytophthora infestans, this compound yielded an Eff. % of 89%.
Consider `CN(C)C(=S)c1ccccc1C1CC(c2csc(C3CCN(C(=O)Cn4nc(C(F)F)cc4C(F)F)CC3)n2)=NO1` (stereo not shown) [I-127], for which the “logp [a]” value in data set [1] is 3.11[a],. In addition, the “logp [b]” value in data set [1] is 3.06[b]. Moreover, the Eff. % in the data set with Plasmopara viticola is on record as 96%; in the data set on Phytophthora infestans, 97%.
With `COC(=O)COc1ccc(C2CC(c3csc(C4CCN(C(=O)Cn5nc(C(F)F)cc5C(F)F)CC4)n3)=NO2)cc1` (stereo not shown) [I-128], in data set [1], the “logp [a]” value was 2.89[a], and the “logp [b]” value was 2.87[b]. In the data set on Plasmopara viticola, the Eff. % was 93%. In the data set on Phytophthora infestans, the Eff. % is recorded as 90%.
For `O=C(Oc1ccccc1C1CC(c2csc(C3CCN(C(=O)Cn4nc(C(F)F)cc4C(F)F)CC3)n2)=NO1)c1cccc(F)c1` (stereo not shown) [I-129] the same measures were 3.76[a],, 3.7[b], 98% and 98%.
For `O=C(Oc1ccccc1C1CC(c2csc(C3CCN(C(=O)Cn4nc(C(F)F)cc4C(F)F)CC3)n2)=NO1)c1ccccc1F` (stereo not shown) [I-130] the same measures were 3.61[a],, 3.58[b], 100% and 100%.
On to `O=C(Oc1ccccc1C1CC(c2csc(C3CCN(C(=O)Cn4nc(C(F)F)cc4C(F)F)CC3)n2)=NO1)c1ccccc1` (stereo not shown) [I-131], for which, in data set [1], the “logp [a]” value is 3.69[a],. For the same compound, the “logp [b]” value in data set [1] was 3.65[b]. Also, the Eff. % is reported as 94% in the data set with Plasmopara viticola and 100% in the data set with Phytophthora infestans.
For `O=C(Oc1ccccc1C1CC(c2csc(C3CCN(C(=O)Cn4nc(C(F)F)cc4C(F)F)CC3)n2)=NO1)c1ccc(F)cc1` (stereo not shown) [I-132], in that order: 3.73[a],, 3.7[b], 96% and 100%.
For `C[Si](C)(C)C#Cc1ccccc1C1CC(c2csc(C3CCN(C(=O)Cn4nc(C(F)F)cc4C(F)F)CC3)n2)=NO1` (stereo not shown) [I-133], in that order: 4.78[a],, 4.79[b], 85% and 100%.
As for `C#CCOCc1ccccc1C1CC(c2csc(C3CCN(C(=O)Cn4nc(C(F)F)cc4C(F)F)CC3)n2)=NO1` (stereo not shown) [I-138], the “logp [a]” value in data set [1] is 3.74[a]. Moreover, the Eff. % in the data set with Plasmopara viticola is recorded as 98%; in the data set with Phytophthora infestans, 93%.
As to `Cc1cc(C(F)(F)F)nn1CC(=O)N1CCC(c2nc(C3=NOC(c4ccccc4OCC#N)C3)cs2)CC1` (stereo not shown) [I-140], the “logp [a]” value in data set [1] was 2.97[a],. The “logp [b]” value in data set [1] is 2.98[b]. Further, the results for the Eff. % in the data set with Plasmopara viticola and in the data set on Phytophthora infestans were 100% and 84%, respectively.
